“And” between values parts separate entries of the source, which are not always exact repeats. Equal values may be shown once.
Columns and labels:
[1] = system: PANC-1 cells having stably integrated p6SBE-luc; test: Dose response of transcriptional facilitation in stably transfected cell line (FIG. 3); format: cell-based; details: for transcriptional facilitation (in words): at concentrations corresponding to scriptaid; for optimal concentration for transcriptional facilitation: PANC-1 stably integrated p6SBE-luc, luciferase
Protocol: FIG. 3. Dose responses of TSA and scriptaid transcriptional facilitation in a stably transfected cell line. Luciferase activity was determined using PANC-1 cells having stably integrated p6SBE-luc at the indicated concentration of compounds. Data represent averages of two to three experiments and SEM.
(§1) Cell Lines. PANC-1 and MDA-MB-468 cell lines were purchased from ATCC (Manassas, Va.). Stable transfectants were generated by co-transfection of pcDNA3.1 (Invitrogen, Carlsbad, Calif.) and p6SBE-luc into PANC-1 cells with LipofectAMINE (Life Technologies, Inc.). Transfected cells were diluted and selected in multiple 96-well plates in the presence of 0.5 mg/ml of G418 (Life Technologies, Inc.). Single clones were expanded and tested for basal luciferase expression and TGFβ inducibility. One clone was chosen on basis of high (6 to 8-fold) induction of luciferase by 0.5 ng/ml TGFβ (R&D Systems, Minneapolis, Minn.).
(§2) Compound Screening. Each compound of the library (DIVERSet, ChemBridge, San Diego, Calif.) was dissolved and diluted in DMSO at 1 mg/ml. Cells were plated in 96-well cluster plates (Corning, Cambridge, Mass.) and incubated with each compound, after further dilution in culture media to the final concentration of 2 μg/ml, for 16-18 hours. Luciferase activity was measured upon addition of Steady-Glo substrate (Promega). Up to sixteen 96-well plates could be assembled in a Wallac Trilux photodetector (Wallac, Gaithersburg, Md.) for measurement. All readouts from each experiment were compared to the control wells, and a number reflecting the relative increase in luciferase activity was calculated for each chemical using Excel (Microsoft, Redmond, Wash.) spreadsheets.
The entire library, consisting of 16,320 compounds, was screened. Eleven compounds were associated with a two to five-fold induction of luciferase activity, and one with a twelve-fold activation (FIG. 1). Further studies on the latter compound (ID#217444, 6-(1,3-Dioxo-1H,3H-benzo[de]isoquinolin-2-yl)-hexanoic acid hydroxyamide, we termed scriptaid) are reported here (FIG. 2). […] The results were validated by repeated determinations in the screening assay and subsequently by a dose-response curve performed on PANC-1 cells containing stably integrated p6SBE-luc (FIG. 3).

[2] = system: p6SBE-luc reporter construct in PANC-1 cells; test: Compound screening, luciferase activity in PANC-1 cells with stably integrated p6SBE-luc; format: cell-based; details: 2 μg/ml compound, 16-18 hours, initial library screen
Protocol: as §1
as §2, with “spreadsheets. […]” for “spreadsheets.”

[3] = Richon et al., 1996; cited from earlier work
[4] = system: p6SBE-luc, p6MBE-luc, pCMVβ, pUB6/V5-lacZ reporters in PANC-1 or MDA-MB-468 cells; test: Transient transfection reporter assay (luciferase, β-gal); format: cell-based; details: 18 hours; for facilitation of reporter expression after transient transfection (in words): SV40, CMV and ubiquitin c promoters, PANC-1 or MDA-MB-468
Protocol: FIGS. 7A-7C. Scriptaid and TSA transcriptional facilitation after transient transfection. PANC-1 or MDA-MB-468 cells were transiently transfected for 4 hours with constructs containing various promoters. Transfected cells were untreated or treated with scriptaid or TSA for 18 hours. Data represent averages of two to five experiments and SEM. FIG. 7A, SV40 promoter and luciferase reporter gene. FIG. 7B, CMV promoter and β-gal reporter gene. FIG. 7C, human ubiquitin c promoter and β-gal reporter gene.
Transfection Assay. Each transient transfection experiment was done in duplicate in six-well plates. LipofectAMINE (Life Technologies, Inc.) was used as directed by the manufacturer. The DNA-LipofectAMINE mixture was removed from cells after 4-5 hours of transfection, and culture media with or without compounds or TGFβ was then added to the cells. Sixteen to eighteen hours from the start of the transfection, cell lysates were prepared with Reporter Lysis Buffer (Promega) for luciferase and β-gal assays. Luciferase was measured using The Luciferase Assay System (Promega) and β-gal assay was performed as previously described (Dai et al., 1998). Studies of the SV40 promoter included all experiments done with p6SBE-luc, p6MBE-luc, and pGL3-control (Promega) plasmids. Studies of the CMV promoter were done using pCMVβ. (Clonetech, Palo Alto, Calif.), and those of human ubiquitin c promoter were done using pUB6/V5-lacZ (Invitrogen).

[5] = system: histone deacetylase (HDAC) in PANC-1 cells; test: Immunoblotting assay of histone acetylation; format: cell-based
Protocol: PANC-1 cells were untreated or treated with scriptaid (2 μg/ml) or TSA (0.1 or 0.32 μg/ml). Acetylated histones were detected by anti-human acetyl-lysine antibody immunoblot. Immunoblotting Assay of Histone Acetylation. PANC-1 cells were treated with 2 μg/ml of scriptaid (ChemBridge), 0.1 μg/ml, or 0.32 μg/ml of trichostatin A (Sigma, St. Louis, Mo.) for 18 hours in culture media. Treated and untreated cells were harvested with trypsin-EDTA (Life Technologies, Inc.), washed with phosphate-buffered saline (Life Technologies, Inc.), and resuspended in a protein sample buffer. Protein concentration was determined by BCA protein assay reagents (Pierce, Rockford, Ill.). Fifty micrograms of proteins from each sample was loaded on a 12% denaturing polyacrylamide gel. Proteins were subsequently transferred to a nylon membrane (Imobilon P, Millipore, Burlington, Mass.) using Milliblot-Graphite Electroblotter I (Millipore). The nylon membrane was incubated with rabbit anti-human acetyl-lysine antibody (#06-933, Upstate Biotechnology, Waltham, Mass.) at 1:1000 dilution, followed by goat anti-rabbit antibody coupled to horseradish peroxidase (Pierce) at 1:2000 dilution, developed with SuperSignal substrates (Pierce), and detected by film (BioMax, Kodak, Rochester, N.Y.).

[6] = system: PANC-1 cells containing the stably integrated p6SBE-luc; test: TGFβ/Smad4 signal transduction assay with stably integrated p6SBE-luc (FIGS. 6B, 6C); format: cell-based; details: absence or presence of TGFβ 1 ng/ml
Protocol: FIGS. 6A-6C. Proportional effects of scriptaid and TSA on the TGFβ/Smad4 signal transduction assay. FIG. 6A, p6SBE-luc or p6MBE-luc was cotransfected with pCMV-β into PANC-1 cells. Transfected cells were untreated or treated with TGFβor/and scriptaid for 18 hours. […] Relative luciferase induction was determined after normalization to the TGFβ-non-inducible pCMV-β control, itself subject to scriptaid facilitation (see FIG. 7). Data represent averages of two experiments and SEM. FIG. 6B, total luciferase induction in PANC-1 cells containing the stably integrated p6SBE-luc after treatment with scriptaid or TSA in the absence or presence of TGFβ (1 ng/ml). FIG. 6C, relative luciferase induction in PANC-1 cells containing the stably integrated p6SBE-luc after treatment with scriptaid or TSA in the absence or presence of TGFβ (1 ng/ml ) determined after normalization to the values observed with the HDAC inhibitor alone.
Cell Lines. PANC-1 and MDA-MB-468 cell lines were purchased from ATCC (Manassas, Va.). Stable transfectants were generated by co-transfection of pcDNA3.1 (Invitrogen, Carlsbad, Calif.) and p6SBE-luc into PANC-1 cells with LipofectAMINE (Life Technologies, Inc.). Transfected cells were diluted and selected in multiple 96-well plates in the presence of 0.5 mg/ml of G418 (Life Technologies, Inc.). […]

[7] = system: PANC-1 and MDA-MB-468 cells; test: Survival curve, trypan-blue exclusion; format: cell-based; details: 18-hour incubation; for cytotoxicity (in words): at optimal concentration for transcriptional facilitation
Protocol: FIGS. 5A to 5B. Effects of compounds on cell survival. […] Data represent averages of two to four experiments and SEM. FIG. 5A, scriptaid. FIG. 5B, TSA.
Survival Curve. Equal numbers of cells were plated in six-well plates in the absence or presence of scriptaid or TSA at different concentrations. After 18 hours of incubation, cell numbers were determined by trypan-blue exclusion. Percent survival of the treated cells was calculated in comparison to the untreated sample, which was considered to represent 100%.

Compound	induction of luciferase activity relative to control wells [2]	optimal concentration reported [3]	facilitation of reporter expression after transient transfection (in words) [4]	effect on TGFβ-stimulated induction of integrated p6SBE-luc (in words) [6]	cytotoxicity (in words) [7]	further results
O=C(CCCN1C(=O)c2cccc3cccc(c23)C1=O)NO [nullscript, 4-(1,3-Dioxo-1H,3H-benzo[de]isoquinolin-2-yl)-N-hydroxy-butyramide]	did not induce	–	–	–	–	transcriptional facilitation (in words) [1]: inactive; transcriptional facilitation (in words) ([1]; listed as Nullscipt): does not facilitate transcription
O=C(/C=C/c1cccc(C(=O)NO)c1)NO [CBHA]	–	4 µM	–	–	–	–
CC(=O)NCCCCCCNC(C)=O [HMBA]	–	5000 µM	–	–	–	–
CC(/C=C/C(=O)NO)=C\[C@@H](C)C(=O)c1ccc(N(C)C)cc1 [TSA, trichostatin A]	–	–	less predictable at its optimal concentration	proportionally enhance the induction of an integrated p6SBE-luc construct without interfering with TGFβ-stimulated transcriptional responses	cytotoxic for two cell lines	inhibition of endogenous histone deacetylation (in words) ([5]; TSA 0.1 μg/ml, compared with scriptaid 2 μg/ml and TSA 0.32 μg/ml): less efficient; survival ([7]; minimal toxic concentration 0.1 μg/ml): 85-90%
O=C(CCCCCCC(=O)Nc1ccccc1)NO [SAHA]	–	2 µM	–	–	–	–
O=C(CCCCCN1C(=O)c2cccc3cccc(c23)C1=O)NO [scriptaid, 6-(1,3-Dioxo-1H,3H-benzo[de]isoquinolin-2-yl)-hexanoic acid hydroxyamide]	twelve-fold	–	capable of inducing high expression	proportionally enhance the induction of an integrated p6SBE-luc construct without interfering with TGFβ-stimulated transcriptional responses	not lethal to one cell line	increase of transcription of all three reporters (p6SBE-luc, p6MBE-luc, pCMVβ) ([4]; transient cotransfection in PANC-1 cells): twelve-fold; optimal concentration for transcriptional facilitation [1]: 6 to 8 µM; optimal concentration for transcriptional facilitation ([1]; listed as Scriptaid): 2-2.5 μg/ml and 6-8 μM; increase in histone acetylation ([5]; cultured cells, scriptaid 2 μg/ml, 18 hours, anti-acetyl-lysine immunoblot): greater than 100 fold; survival ([7]; at its optimal concentration for transcriptional facilitation, cell line not named): 80%

From patent US6544957B2, “Methods and reagents for facilitating transcription” (The Johns Hopkins University, priority 2000, dated 2003)
